Measurements published in patent US20230031406A1, “COMPOUNDS AND COMPOSITIONS FOR TREATING CONDITIONS ASSOCIATED WITH NLRP ACTIVITY” (Novartis AG, priority 2018, published 2023).
Where two headings read alike, the source gives them in different places.

Test system: PMA-differentiated THP-1 cells
Test: IL-1β production in PMA-differentiated THP-1 cells stimulated with gramicidin (hTHP-1 assay containing 2% fetal bovine serum; Procedures 1 and 2)
Assay type: cell-based, human
Details: 2% fetal bovine serum
Method in brief: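 Secreted IL-1β, read by HTRF, after gramicidin challenge (5 μM, 2 h) of THP-1 cells differentiated with PMA (20 ng/ml, 16-18 h) and plated at 50,000 cells/well in 2% FBS medium. Compounds, 0.0017-100 μM final with 0.37% DMSO, were added 1 h before stimulation.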

[1] = Homo sapiens, THP-1, Table B2, class symbols, read-out: hTHP-1 IC50
[2] = Table B2, class symbols, read-out: hTHP-1 IC50
[3] = Table B3, hTHP-1 assay, class symbols, read-out: IC50
[4] = Table B1, class symbols, read-out: Average IC50 of compounds in hTHP-1 assay: hTHP-1 IC50
[5] = Homo sapiens, THP-1, Table B1, class symbols, read-out: Average IC50 of compounds in hTHP-1 assay: hTHP-1 IC50
[6] = Homo sapiens, THP-1, Table B4, class symbols, read-out: hTHP-1 IC50

NS(=O)(=NC(=O)Nc1c2c(nc3c1CCC31CC1)CCC2)c1cnn(C(F)F)c1 (centres unmarked) [Compound 638, 1-(Difluoromethyl)-N′-((1′,5′,6′,7′-tetrahydro-2′H-spiro[cyclopropane-1,3′-dicyclopenta[b,e]pyridin]-8′-yl)carbamoyl)-1H-pyrazole-4-sulfonimidamide] was tested, and the IC50 [1] was 5 to 30 µM.

Work on CC(C)n1nc(S(N)(=O)=NC(=O)Nc2c3c(nc4c2CCC42CC2)CCC3)cc1CO (single isomer, unassigned) [Example 642, (S) or (R)-5-(hydroxymethyl)-1-isopropyl-N′-((1′,5′,6′,7′-tetrahydro-2′H-spiro[cyclopropane-1,3′-dicyclopenta[b,e]pyridin]-8′-yl)carbamoyl)-1H-pyrazole-3-sulfonimidamide] yielded an IC50 (Homo sapiens, THP-1, Table B3, hTHP-1 assay, numeric values, read-out: IC50) of over 30 µM.

Compound CN(C)Cc1ccc(S(N)(=O)=NC(=O)Nc2c3c(nc4c2CCC4(C)C)CCC3)cc1 (single isomer, unassigned) [Compound 125a, (S) or (R)-N′-((3,3-dimethyl-1,2,3,5,6,7-hexahydro-dicyclopenta[b,e]pyridin-8-yl)carbamoyl)-4-((dimethylamino)meth-yl)benzene-sulfonimidamide] has an IC50 (Homo sapiens, THP-1, Table B1, numeric bounds, read-out: Average IC50 of compounds in hTHP-1 assay: hTHP-1 IC50) of over 30 µM.

For CC1(C)CCc2c1nc1c(c2NC(=O)N=S(N)(=O)c2cnc(C(C)(O)CO)s2)CCC1 (single isomer, unassigned) [Compound 201f, (R, S) and (S, S) or (S, R) and (R, R)-2-(1.2-Dihydroxvpropan-2-yl)-N′-((3,3-dimethyl-1,2,3.5.6.7-hexahydrodicyclopenta [b,e]pvridin-8-yl)carbamoyl)thiazole-5-sulfonimidamide], the IC50 [2] was 5 to 30 µM.

Cc1c(C(F)(F)F)nc2c(c1NC(=O)N=[S@@](N)(=O)c1cnc(C(C)(C)O)s1)CCC2C (some centres unmarked) [Compound 608d] was tested, and the IC50 [1] was 1 to 5 µM.

CC(C)n1cc(F)c(S(N)(=O)=NC(=O)Nc2c3c(nc4c2CCC4)CCC3)n1 (single isomer, unassigned) [Example 786, (S) or (R)-4-fluoro-N′-((1,2,3,5,6,7-hexahydrodicyclopenta [b,e]pyridin-8-yl)carbamoyl)-1-isopropyl-1H-pyrazole-3-sulfonimidamide] gave an IC50 (Table B4, class symbols, read-out: hTHP-1 IC50) of 5 to 30 µM.

For Cc1c(C2CC2)nc2c(c1NC(=O)N=S(N)(=O)c1cc(C(C)(C)O)n(-c3ccccc3)n1)CCC2 (centres unmarked) [Compound 651, N′-((2-cyclopropyl-3-methyl-6,7-dihydro-5H-cyclopenta[b]pyridin-4-yl)carbamoyl)-5-(2-hydroxypropan-2-yl)-1-phenyl-1H-pyrazole-3-sulfonimidamide], the IC50 [1] was 5 to 30 µM.

CCn1cc(F)c(S(N)(=O)=NC(=O)Nc2c(C)c(C3CC3)nc3c2CCC3)n1 (single isomer, unassigned) [Example 714, (S) or (R)-N′-((2-cyclopropyl-3-methyl-6,7-dihydro-5H-cyclopenta[b]pyridin-4-yl)carbamoyl)-1-ethyl-4-fluoro-1H-pyrazole-3-sulfonimidamide] gave an IC50 [3] of 1 to 5 µM.

In the case of CCn1cc(F)c(S(N)(=O)=NC(=O)Nc2c(C)c(C3CC3)nc3c2CCC3)n1 (single isomer, unassigned) [Example 713, (R) or (S)-N′-((2-cyclopropyl-3-methyl-6,7-dihydro-5H-cyclopenta[b]pyridin-4-yl)carbamoyl)-1-ethyl-4-fluoro-1H-pyrazole-3-sulfonimidamide], the IC50 [3] is reported as 0.04 to 0.2 µM.

CCn1cc(Cl)c(S(N)(=O)=NC(=O)Nc2c(C)c(C(F)(F)F)nc3c2CCC3)n1 (centres unmarked) [Compound 729] was tested, and the IC50 [1] was 0.2 to 1 µM.

COCc1nc(C(C)(C)O)sc1S(N)(=O)=NC(=O)Nc1c2c(nc3c1CCC3)CCC2 (single isomer, unassigned) [Compound 689a, (S) or (R)-N′-((1,2,3,5,6,7-hexahydrodicyclopenta [b,e]pyridin-8-yl)carbamoyl)-2-(2-hydroxypropan-2-yl)-4-(methoxymethyl) thiazole-5-sulfonimidamide] was tested, and the IC50 (Homo sapiens, THP-1, Table B2, numeric bounds, read-out: hTHP-1 IC50) was over 30 µM.

Compound C[C@@H]1CCc2c1nc1c(c2NC(=O)N=S(N)(=O)c2ccn(C(C)(F)F)n2)CCC1 (single isomer, unassigned) [Compound 723a, (S) or (R)-1-(1,1-Difluoroethyl)-N′-(((R)-3-methyl-1,2,3,5,6,7-hexahydrodicyclopenta[b, e]pyridin-8-yl)carbamoyl)-1H-pyrazole-3-sulfonimidamide] has an IC50 [2] of 5 to 30 µM.

Compound CC(C)n1ccc(S(N)(=O)=NC(=O)Nc2c3c(nc4c2CCC4(C)C)CCC3)n1 (single isomer, unassigned) [Compound 126a, (R) or (S)-N′-((3,3-dimethyl-1,2,3,5,6,7-hexahydro-dicyclopenta[b,e]pyridin-8-yl)carbamoyl)-1-isopropyl-1H-pyrazole-3-sulfonimidamide] has an IC50 [4] of 0.04 to 0.2 µM.

CC(C)(O)c1csc(S(N)(=O)=NC(=O)Nc2cc(C3CC3)nc3c2CCC3)c1 (centres unmarked) [Compound 176, N′-((2-cyclopropyl-6,7-dihydro-5H-cyclopenta[b]pyridin-4-yl)carbamoyl)-4-(2-hydroxypropan-2-yl)thiophene-2-sulfonimidamide] showed an IC50 [5] of 5 to 30 µM.

With Cc1c(C(F)(F)F)nc2c(c1NC(=O)N=S(N)(=O)c1nn(C(F)F)cc1F)CCC2 (centres unmarked) [Example 561, 1-(Difluoromethyl)-4-fluoro-N′-((3-methyl-2-(trifluoromethyl)-6,7-dihydro-5H-cyclopenta[b]pyridin-4-yl)carbamoyl)-1H-pyrazole-3-sulfonimidamide] the IC50 (Homo sapiens, THP-1, Table B3, hTHP-1 assay, class symbols, read-out: IC50) was 0.2 to 1 µM.

CCc1csc(S(N)(=O)=NC(=O)Nc2c3c(nc4c2CC[C@H]4C)CCC3)c1 (single isomer, unassigned) [Compound 721b, (R) or (S)-4-Ethyl-N′-(((R)-3-methyl-1,2,3,5,6,7-hexahydrodicyclopenta[b, e]pyridin-8-yl)carbamoyl)thiophene-2-sulfonimidamide] showed an IC50 [2] of 0.04 to 0.2 µM.

In the case of Cc1c(C(C)(C)C)nc2c(c1NC(=O)N=S(N)(=O)c1cc(C(C)(C)O)cs1)CCC2 (centres unmarked) [Compound 657, N′-((2-(tert-butyl)-3-methyl-6,7-dihydro-5H-cyclopenta[b]pyridin-4-yl)carbamoyl)-4-(2-hydroxypropan-2-yl)thiophene-2-sulfonimidamide], the IC50 [1] is reported as 5 to 30 µM.

CCn1cc(F)c(S(N)(=O)=NC(=O)Nc2c3c(nc(C(F)(F)F)c2-c2ccccc2F)CCC3)n1 (centres unmarked) [Example 746, 1-Ethyl-4-fluoro-N′-((3-(2-fluorophenyl)-2-(trifluoromethyl)-6,7-dihydro-5H-cyclopenta[b]pyridin-4-yl)carbamoyl)-1H-pyrazole-3-sulfonimidamide] gave an IC50 [6] of 0.008 to 0.04 µM.

For Cc1c(C(F)(F)F)nc2c(c1NC(=O)N=S(N)(=O)c1cnc(C(C)(O)CO)s1)CCC2 (centres unmarked) [Compound 605, 2-(1,2-Dihydroxypropan-2-yl)-N′-((3-methyl-2-(trifluoromethyl)-6,7-dihydro-5H-cyclopenta[b]pyridin-4-yl)cabamoyl)thiazole-5-sulfonimidamide], the IC50 [2] was 0.2 to 1 µM.

CC(C)(O)c1cc(Cl)c(S(N)(=O)=NC(=O)Nc2c3c(nc4c2CCC4)CCC3)s1 (single isomer, unassigned) [Compound 691a, (S) or (R)-3-Chloro-N′-((1,2,3,5,6,7-hexahydrodicyclopenta [b,e]pyridin-8-yl)carbamoyl)-5-(2-hydroxypropan-2-yl)thiophene-2-sulfonimidamide] showed an IC50 [2] of 5 to 30 µM.

C[C@@H]1CCc2c1nc1c(c2NC(=O)N=S(N)(=O)c2cnc([C@@](C)(O)CO)s2)CCC1 (single isomer, unassigned) [Example 730] gave an IC50 [6] of 0.2 to 1 µM.

For CC1CCc2c1nc1c(c2NC(=O)N=S(N)(=O)c2sc(C(C)(C)O)cc2F)CCC1 (centres unmarked) [Compound 103, 3-fluoro-5-(2-hydroxypropan-2-yl)-N′-((3-methyl-1,2,3,5,6,7-hexahydrodicyclopenta[b,e]pyridin-8-yl)carbamoyl)thiophene-2-sulfonimidamide], the IC50 [4] was 0.04 to 0.2 µM.

CC(C)n1cc(CO)c(S(N)(=O)=NC(=O)Nc2c3c(nc4c2CCC4(C)C)CCC3)n1 (centres unmarked) [Compound 682, N′-((3,3-dimethyl-1,2,3,5,6,7-hexahydrodicyclopenta [b,e]pyridin-8-yl)carbamoyl)-4-(hydroxymethyl)-1-isopropyl-1H-pyrazole-3-sulfonimidamide] gave an IC50 [1] of 1 to 5 µM.

Work on CC1(C)CCc2c1nc1c(c2NC(=O)N=S(N)(=O)c2cnc(C(C)(O)CO)s2)CCC1 (single isomer, unassigned) [Compound 201d, (R, S) or (S, S) or (S, R) or (R, R)-2-(1.2-Dihydroxypropan-2-yl)-N′-((3,3-dimethyl-1,2,3,5,6.7-hexahydrodicyclopenta [b,e]pvridin-8-yl)carbamoyl)thiazole-5-sulfonimidamide] yielded an IC50 [2] of 5 to 30 µM.

Compound CC(C)(O)c1nc(CO)c(S(N)(=O)=NC(=O)Nc2c3c(nc4c2CCC4(C)C)CCC3)s1 (single isomer, unassigned) [Compound 121b, (S) or (R)-N′-((3,3-dimethyl-1,2,3,5,6,7-hexahydro-dicyclopenta[b,e]pyridin-8-yl)carbamoyl)-4-(hydroxymethyl)-2-(2-hydroxypropan-2-yl)thiazole-5-sulfonimidamide] has an IC50 [4] of 5 to 30 µM.

For CC1CCc2nc3c(c(NC(=O)N=S(N)(=O)c4cnc(C(C)(C)O)s4)c21)CCC3 (centres unmarked) [Compound 151, 2-(2-hydroxypropan-2-yl)-N′-((1-methyl-1,2,3,5,6,7-hexahydrodicyclopenta[b,e]pyridin-8-yl)carbamoyl)thiazole-5-sulfonimidamide], the IC50 [5] was 0.2 to 1 µM.
